# Test: recombinant barcode read abundance after kanamycin selection (control-corrected) (log10(CPM+1)); higher = more efficient recombination; sequences stand for … in AGTGCAGAGAAAATCGGCCAGTTTTCTCTGCCTGCAGTCCGCATGCCGT…AGATTTATGCAGCGGACTGCCTTTCTCCCAAAGTGATAAACCGGACAGTATCATGGACCGGTTTTCCCGGTAATCCGTATTTGCAAGGTTGGTTTCACT; site = the 11-nt target
# How it was run: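 Targets were screened in pooled form in E. coli against IS621 bridge RNA target-binding loops. Recombination efficiency is based on barcode counts at recombinant junctions in counts per million, averaged and corrected for the control. Numbers are shown as log10(CPM+1), with duplicate plates on chloramphenicol/ampicillin LB agar (control) or chloramphenicol/ampicillin/kanamycin with 0.1 mM IPTG.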
# 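Also: IS621 recombinase and bridge RNA in Escherichia coli cells.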
row,Sequence,recombinant barcode read abundance (log10)
1,AGGCGCCCTTGGGTTCTAACCTGTTGCAA (site AGGCGCCCTGT),0.0953
2,AGGCGCCCTTGGGTTCTAACCTGTTGCAA (site AGGCGCCCTTT),0.635
3,AGGCTGACTTGGGTTCTAACCTGTTGCCT (site AGGCTGACTAG),0.94
4,AGGCTGACTTGGGTTCTAACCTGTTGCCT (site AGGCTGCCTAG),0.0128
5,AGGCTGACTTGGGTTCTAACCTGTTGCCT (site AGGCTGGCTAG),0.0298
6,AGGCTGACTTGGGTTCTAACCTGTTGCCT (site AGGCTGTCTAG),0.139
7,AGGCTTACTTGGGTTCTAACCTGTTGCAG (site AGGCTTACTCT),1.47
8,AGGCTTACTTGGGTTCTAACCTGTTGCAG (site AGTCCTACTCT),0.0844
9,AGGGACTCTTGGGTTCTAACCTGTTGCCG (site AGGGACTCTCG),1.71
10,AGGGACTCTTGGGTTCTAACCTGTTGCCG (site TGGGACACTCG),0.0423
11,AGGGAGACTTGGGTTCTAACCTGTTGCTC (site AGGGAGACTGA),2.64
12,AGGGAGACTTGGGTTCTAACCTGTTGCTC (site CACTTTGCTAG),0.151
13,AGGGATCCTTGGGTTCTAACCTGTTGCGG (site AAGTATCCTCC),0.032
14,AGGGATCCTTGGGTTCTAACCTGTTGCGG (site AGGGATCCTCC),2.7
15,AGGGCACCTTGGGTTCTAACCTGTTGCCA (site AGGGCACCTTG),1.26
16,AGGGCACCTTGGGTTCTAACCTGTTGCCA (site ATGGCACCTAG),0.186
17,AGGGCTTCTTGGGTTCTAACCTGTTGCTA (site ACGGCTTCTTA),0
18,AGGGCTTCTTGGGTTCTAACCTGTTGCTA (site AGGGCTTCTTA),1.87
19,AGGGGAGCTTGGGTTCTAACCTGTTGCGG (site AGGGGAGCTCC),2.35
20,AGGGGAGCTTGGGTTCTAACCTGTTGCGG (site ATGGGAGCTTC),0.0749
21,AGGGGATCTTGGGTTCTAACCTGTTGCCT (site AGGGGATCTAG),1.86
22,AGGGGATCTTGGGTTCTAACCTGTTGCCT (site AGTGGAGCTAG),0.0518

row,Sequence,recombinant barcode read abundance (log10)
1,AGGGGCACTTGGGTTCTAACCTGTTGCCG (site ACGGTCACTCG),0.104
2,AGGGGCACTTGGGTTCTAACCTGTTGCCG (site AGGGGCACTCG),1.83
3,AGGGGCTCTTGGGTTCTAACCTGTTGCTG (site ACGGGCTCTAA),0.0932
4,AGGGGCTCTTGGGTTCTAACCTGTTGCTG (site AGGGGCTCTCA),3.01
5,AGGTAACCTTGGGTTCTAACCTGTTGCCT (site AGGTAACCTAG),0.401
6,AGGTAACCTTGGGTTCTAACCTGTTGCCT (site CGGTAACCTAG),0.23
7,AGGTAACCTTGGGTTCTAACCTGTTGCCT (site GGGTAACCTAG),0.885
8,AGGTAACCTTGGGTTCTAACCTGTTGCCT (site TGGTAACCTAG),0.179
9,AGGTCAACTTGGGTTCTAACCTGTTGCCG (site AGGTCAACTCG),0.0699
10,AGGTCAACTTGGGTTCTAACCTGTTGCCG (site TAAGGTCCTAA),0.0279
11,AGGTCACCTTGGGTTCTAACCTGTTGCCT (site AGGTCACCTAA),0.0905
12,AGGTCACCTTGGGTTCTAACCTGTTGCCT (site AGGTCACCTAC),0.897
13,AGGTCACCTTGGGTTCTAACCTGTTGCCT (site AGGTCACCTAG),1.83
14,AGGTCACCTTGGGTTCTAACCTGTTGCCT (site AGGTCACCTAT),0.221
15,AGGTCCGCTTGGGTTCTAACCTGTTGCTA (site AGGTCCGCTTA),1.4
16,AGGTCCGCTTGGGTTCTAACCTGTTGCTA (site CACCAGCCTAT),0.026
17,AGGTCCTCTTGGGTTCTAACCTGTTGCAT (site AGGTCCTCTAA),0.282
18,AGGTCCTCTTGGGTTCTAACCTGTTGCAT (site AGGTCCTCTAC),0.0867
19,AGGTCCTCTTGGGTTCTAACCTGTTGCAT (site AGGTCCTCTAG),0.707
20,AGGTCCTCTTGGGTTCTAACCTGTTGCAT (site AGGTCCTCTAT),2.24
21,AGGTCCTCTTGGGTTCTAACCTGTTGCTA (site AGGTCCTCTTA),1.96
22,AGGTCCTCTTGGGTTCTAACCTGTTGCTA (site TGATCCTCTTA),0.0783

row,Sequence,recombinant barcode read abundance (log10)
1,AGGTGCTCTTGGGTTCTAACCTGTTGCCT (site AAGTGCTCTAG),0.0629
2,AGGTGCTCTTGGGTTCTAACCTGTTGCCT (site ACGTGCTCTAG),0.179
3,AGGTGCTCTTGGGTTCTAACCTGTTGCCT (site AGGTGCTCTAG),1.6
4,AGGTGCTCTTGGGTTCTAACCTGTTGCCT (site ATGTGCTCTAG),0.107
5,AGGTGTCCTTGGGTTCTAACCTGTTGCTT (site AGGTGTCCTAA),1.4
6,AGGTGTCCTTGGGTTCTAACCTGTTGCTT (site CGGTGTCCTAA),0.0102
7,AGGTTAGCTTGGGTTCTAACCTGTTGCTA (site AGGTTAGCTTA),0.0546
8,AGGTTAGCTTGGGTTCTAACCTGTTGCTA (site GCAAGTACTCT),0.538
9,AGTAACCCTTGGGTTCTAACCTGTTGCCT (site AATAACCCTAG),0.0627
10,AGTAACCCTTGGGTTCTAACCTGTTGCCT (site ACTAACCCTAG),0.158
11,AGTAACCCTTGGGTTCTAACCTGTTGCCT (site AGTAACCCTAG),1.22
12,AGTAACCCTTGGGTTCTAACCTGTTGCCT (site ATTAACCCTAG),0.137
13,AGTAAGACTTGGGTTCTAACCTGTTGCAT (site AGTAAGACTAA),0.197
14,AGTAAGACTTGGGTTCTAACCTGTTGCAT (site AGTAAGACTAC),0.0256
15,AGTAAGACTTGGGTTCTAACCTGTTGCAT (site AGTAAGACTAG),0.423
16,AGTAAGACTTGGGTTCTAACCTGTTGCAT (site AGTAAGACTAT),1.41
17,AGTAAGCCTTGGGTTCTAACCTGTTGCAG (site ACTAAGCCTCC),0.133
18,AGTAAGCCTTGGGTTCTAACCTGTTGCAG (site AGTAAGCCTCT),1.12
19,AGTAAGCCTTGGGTTCTAACCTGTTGCCT (site AGTAAGCCTAG),0.864
20,AGTAAGCCTTGGGTTCTAACCTGTTGCCT (site AGTCAGCCTAG),0.243
21,AGTAAGCCTTGGGTTCTAACCTGTTGCCT (site AGTGAGCCTAG),0.187
22,AGTAAGCCTTGGGTTCTAACCTGTTGCCT (site AGTTAGCCTAG),0.173

row,Sequence,recombinant barcode read abundance (log10)
1,AGTACGTCTTGGGTTCTAACCTGTTGCTT (site AGTACGTCTAA),0.201
2,AGTACGTCTTGGGTTCTAACCTGTTGCTT (site GTTACGTCTAA),0.0179
3,AGTACTCCTTGGGTTCTAACCTGTTGCTG (site AATACTACTCA),0.085
4,AGTACTCCTTGGGTTCTAACCTGTTGCTG (site AGTACTCCTCA),0.172
5,AGTATAACTTGGGTTCTAACCTGTTGCTG (site AGTATAACTCA),0.24
6,AGTATAACTTGGGTTCTAACCTGTTGCTG (site GTGTACCCTGT),0.178
7,AGTCATTCTTGGGTTCTAACCTGTTGCAT (site AGTCAGTCTAC),0.166
8,AGTCATTCTTGGGTTCTAACCTGTTGCAT (site AGTCATTCTAT),0.45
9,AGTCCCGCTTGGGTTCTAACCTGTTGCCA (site AGTCCCGCTTG),1.67
10,AGTCCCGCTTGGGTTCTAACCTGTTGCCA (site GCATATACTAC),0.212
11,AGTCCTACTTGGGTTCTAACCTGTTGCAG (site AGGCTTACTCT),0.234
12,AGTCCTACTTGGGTTCTAACCTGTTGCAG (site AGTCCTACTCT),0.794
13,AGTCGGACTTGGGTTCTAACCTGTTGCAC (site AGTCGGACTGT),0.846
14,AGTCGGACTTGGGTTCTAACCTGTTGCAC (site CACGATCCTAA),0.0668
15,AGTCTCGCTTGGGTTCTAACCTGTTGCGG (site AGTATCGCTCC),0.0167
16,AGTCTCGCTTGGGTTCTAACCTGTTGCGG (site AGTCTCGCTCC),0.345
17,AGTCTCGCTTGGGTTCTAACCTGTTGCGG (site AGTGTCGCTCC),0.0171
18,AGTCTCGCTTGGGTTCTAACCTGTTGCGG (site AGTTTCGCTCC),0.0153
19,AGTCTCTCTTGGGTTCTAACCTGTTGCCT (site AGTCTCTCTAG),0.688
20,AGTCTCTCTTGGGTTCTAACCTGTTGCCT (site AGTGACTCTAG),0.0251
